ChEMBL document CHEMBL3046389, “Synthesis and biological evaluation of novel hydroquinone dimethyl ethers as potential anticancer and antimicrobial agents” (2013)
Converted amounts (≈) assume the structure as drawn.

Legend:
Type in all cases: functional
Candida albicans = experiment: Antimicrobial activity against Candida albicans DSM 70014 after 48 hr by two-fold serial broth dilution method; conditions: DSM 70014, 48 h
Bacillus subtilis = experiment: Antimicrobial activity against Bacillus subtilis ATCC 6633 after 48 hr by two-fold serial broth dilution method; conditions: ATCC 6633, 48 h
Pseudomonas aeruginosa = experiment: Antimicrobial activity against Pseudomonas aeruginosa ATCC 10145 after 48 hr by two-fold serial broth dilution method; conditions: ATCC 10145, 48 h
Staphylococcus aureus = experiment: Antimicrobial activity against Staphylococcus aureus DSM 1104 after 48 hr by two-fold serial broth dilution method; conditions: DSM 1104, 48 h
Escherichia coli = experiment: Antimicrobial activity against Escherichia coli ATCC 11775 after 48 hr by two-fold serial broth dilution method; conditions: ATCC 11775, 48 h

SMILES | MIC (Candida albicans) | MFC (Candida albicans) | MBC (Bacillus subtilis) | MIC (Bacillus subtilis) | MBC (Pseudomonas aeruginosa) | MIC (Pseudomonas aeruginosa) | MBC (Staphylococcus aureus) | MIC (Staphylococcus aureus) | MBC (Escherichia coli) | MIC (Escherichia coli)
Clc1ccccc1C(c1ccccc1)(c1ccccc1)n1ccnc1 [CLOTRIMAZOLE] | 5 µg/mL (≈ 14.5 µM) | – | – | – | – | – | – | – | – | –
COc1ccc(OC)c(/C=C/C2=NN(C(C)=O)C(c3ccccc3)O2)c1 (stereo not given) | 50 µg/mL (≈ 142 µM) | 50 µg/mL (≈ 142 µM) | 50 µg/mL (≈ 142 µM) | 50 µg/mL (≈ 142 µM) | 100 µg/mL (≈ 284 µM) | 100 µg/mL (≈ 284 µM) | 50 µg/mL (≈ 142 µM) | 25 µg/mL (≈ 70.9 µM) | 100 µg/mL (≈ 284 µM) | 100 µg/mL (≈ 284 µM)
COc1ccc(OC)c(/C=C/c2nnc(S)n2-c2ccccc2)c1 | 100 µg/mL (≈ 295 µM) | 100 µg/mL (≈ 295 µM) | 50 µg/mL (≈ 147 µM) | 50 µg/mL (≈ 147 µM) | 100 µg/mL (≈ 295 µM) | 100 µg/mL (≈ 295 µM) | 50 µg/mL (≈ 147 µM) | 50 µg/mL (≈ 147 µM) | 50 µg/mL (≈ 147 µM) | 25 µg/mL (≈ 73.7 µM)
CCSc1nnc(/C=C/c2cc(OC)ccc2OC)n1-c1ccc(C)cc1 | 100 µg/mL (≈ 262 µM) | 100 µg/mL (≈ 262 µM) | 100 µg/mL (≈ 262 µM) | 50 µg/mL (≈ 131 µM) | 100 µg/mL (≈ 262 µM) | 100 µg/mL (≈ 262 µM) | 100 µg/mL (≈ 262 µM) | 100 µg/mL (≈ 262 µM) | 100 µg/mL (≈ 262 µM) | 100 µg/mL (≈ 262 µM)
COc1ccc(OC)c(/C=C/c2nnc(Nc3ccccc3)s2)c1 | 50 µg/mL (≈ 147 µM) | 50 µg/mL (≈ 147 µM) | 100 µg/mL (≈ 295 µM) | 100 µg/mL (≈ 295 µM) | 100 µg/mL (≈ 295 µM) | 100 µg/mL (≈ 295 µM) | 50 µg/mL (≈ 147 µM) | 50 µg/mL (≈ 147 µM) | 50 µg/mL (≈ 147 µM) | 50 µg/mL (≈ 147 µM)
CCSc1nnc(/C=C/c2cc(OC)ccc2OC)n1-c1ccccc1 | 50 µg/mL (≈ 136 µM) | 50 µg/mL (≈ 136 µM) | 100 µg/mL (≈ 272 µM) | 100 µg/mL (≈ 272 µM) | 100 µg/mL (≈ 272 µM) | 100 µg/mL (≈ 272 µM) | 100 µg/mL (≈ 272 µM) | 100 µg/mL (≈ 272 µM) | 100 µg/mL (≈ 272 µM) | 100 µg/mL (≈ 272 µM)
COc1ccc(OC)c(/C=C/c2nnc(Nc3ccc(C)cc3)o2)c1 | 100 µg/mL (≈ 296 µM) | 100 µg/mL (≈ 296 µM) | 100 µg/mL (≈ 296 µM) | 100 µg/mL (≈ 296 µM) | 50 µg/mL (≈ 148 µM) | 50 µg/mL (≈ 148 µM) | 100 µg/mL (≈ 296 µM) | 100 µg/mL (≈ 296 µM) | 50 µg/mL (≈ 148 µM) | 50 µg/mL (≈ 148 µM)
CCSc1nnc(/C=C/c2cc(OC)ccc2OC)n1-c1ccc(Cl)cc1 | 50 µg/mL (≈ 124 µM) | 50 µg/mL (≈ 124 µM) | 100 µg/mL (≈ 249 µM) | 50 µg/mL (≈ 124 µM) | 50 µg/mL (≈ 124 µM) | 50 µg/mL (≈ 124 µM) | 100 µg/mL (≈ 249 µM) | 100 µg/mL (≈ 249 µM) | 50 µg/mL (≈ 124 µM) | 50 µg/mL (≈ 124 µM)
COc1ccc(OC)c(/C=C/c2nnc(Nc3ccc(C)cc3)s2)c1 | 50 µg/mL (≈ 141 µM) | 50 µg/mL (≈ 141 µM) | 100 µg/mL (≈ 283 µM) | 100 µg/mL (≈ 283 µM) | 100 µg/mL (≈ 283 µM) | 100 µg/mL (≈ 283 µM) | 100 µg/mL (≈ 283 µM) | 100 µg/mL (≈ 283 µM) | 200 µg/mL (≈ 566 µM) | 100 µg/mL (≈ 283 µM)
CC1(C)S[C@@H]2[C@H](NC(=O)[C@H](N)c3ccccc3)C(=O)N2[C@H]1C(=O)O.O.O.O [AMPICILLIN TRIHYDRATE] | – | – | – | 12.5 µg/mL | – | 50 µg/mL | – | 5 µg/mL | – | 10 µg/mL
COc1ccc(OC)c(/C=C/C(=O)N/N=C/c2ccc([N+](=O)[O-])cc2)c1 | 50 µg/mL (≈ 141 µM) | 50 µg/mL (≈ 141 µM) | 50 µg/mL (≈ 141 µM) | 50 µg/mL (≈ 141 µM) | 50 µg/mL (≈ 141 µM) | 50 µg/mL (≈ 141 µM) | 100 µg/mL (≈ 281 µM) | 100 µg/mL (≈ 281 µM) | 50 µg/mL (≈ 141 µM) | 50 µg/mL (≈ 141 µM)
COc1ccc(OC)c(/C=C/C2=NN(C(C)=O)C(c3ccc(Cl)cc3)O2)c1 (stereo not given) | 50 µg/mL (≈ 129 µM) | 100 µg/mL (≈ 259 µM) | 50 µg/mL (≈ 129 µM) | 50 µg/mL (≈ 129 µM) | 50 µg/mL (≈ 129 µM) | 25 µg/mL (≈ 64.6 µM) | 100 µg/mL (≈ 259 µM) | 100 µg/mL (≈ 259 µM) | 50 µg/mL (≈ 129 µM) | 25 µg/mL (≈ 64.6 µM)
COc1ccc(OC)c(/C=C/C2=NN(C(C)=O)C(c3ccc([N+](=O)[O-])cc3)O2)c1 (stereo not given) | 100 µg/mL (≈ 252 µM) | 100 µg/mL (≈ 252 µM) | 100 µg/mL (≈ 252 µM) | 50 µg/mL (≈ 126 µM) | 100 µg/mL (≈ 252 µM) | 50 µg/mL (≈ 126 µM) | 100 µg/mL (≈ 252 µM) | 100 µg/mL (≈ 252 µM) | 100 µg/mL (≈ 252 µM) | 50 µg/mL (≈ 126 µM)
